These results are taken from patent publication US20030109529A1, “Use of s-triazines for treating Apicomplexan parasitic infections” (priority 1999, published 2003).

A word on the LD50: it is the dose at which mortality reaches 50%.

For series [1] the following is noted: rats given a single injection; cited from earlier work.
In a further series the test system is Toxoplasma gondii. As to the kind of experiment: In vitro anti-Toxoplasma test in human foreskin fibroblasts. It is filed as cell-based. The following applies: 24 hrs after treatment. The procedure:
Human foreskin fibroblasts are grown to confluency in 12 well plates. Next, Toxoplasma gondii is added to the plates. The resultant cultures are treated with the test compound 24 hrs later. […]

In the next series the test system is P. berghei. As to the kind of experiment: In vivo efficacy against P. berghei in rats, single oral dose. Further details: species or system rat. The following applies: single oral dose (Chloroquine 20 mg/kg, Atrazine 100 mg/kg) 4 h after inoculation. The procedure:
Rats weighing 60-70 gms were inoculated with P. berghei infected rat red blood cells. […] Blood was obtained 4 days and 11 days later and parasitemia assessed using light microscopy of blood smears. The percent parasitemia (i.e., the presence of parasites in the blood) was then determined for each group and the data are summarized in the table below: […]

The target in the next series is T1, rat DHFR (Rattus norvegicus, UniProt Q920D2).
T1 construct: tested using homogenates of calf liver, rat liver and cultures of P. falciparum; from tissue; host or cells: rat liver homogenate
T1 sequence (Q920D2 1-187): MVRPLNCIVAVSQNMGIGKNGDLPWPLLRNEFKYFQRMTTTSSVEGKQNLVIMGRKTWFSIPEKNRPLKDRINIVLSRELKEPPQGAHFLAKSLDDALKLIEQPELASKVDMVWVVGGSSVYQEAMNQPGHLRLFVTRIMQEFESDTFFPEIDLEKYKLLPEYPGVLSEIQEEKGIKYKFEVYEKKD
As to the kind of experiment: DHFR enzyme assay, rat liver homogenate. It is filed as biochemical. The procedure:
(§1) The ability of atrazine to inhibit dihydrofolate reductase (DHFR) is also tested using homogenates of calf liver, rat liver and cultures of P. falciparum. Atrazine's ability to inhibit mammalian DHFR (i.e., calf DHFR and rat DHFR) as well as malarial DHFR is determined using standard enzyme assays and the Michaelis-Menton analysis. The Michaelis-Menton hypothesis states that a complex is formed between an enzyme and its substrate and that the complex then dissociates to yield free enzyme and the reaction products, with the rate of dissociation determining the overall rate of substrate-product conversion. For a more complete review of the Michaelis constant, see Benet et al., 1996, Pharmacokinetics, Chapter 1:3-27, In Goodman & Gilman's The Pharmacological Basis of Therapeutics, Ninth Edition, McGraw-Hill; and Ross, 1996, Pharmacodynamics, Chapter 2:29-41, Id.

Another series deals with wild type yeast. The series can be described thus: Yeast assay for antifolate activity, wild type yeast. It counts as cell-based, Saccharomyces cerevisiae. The following applies: 48 hours of treatment.
A further series concerns the target T2, calf DHFR (Bos taurus, UniProt P00376).
T2 construct: tested using homogenates of calf liver, rat liver and cultures of P. falciparum; from tissue; host or cells: calf liver homogenate
T2 sequence (P00376 1-187): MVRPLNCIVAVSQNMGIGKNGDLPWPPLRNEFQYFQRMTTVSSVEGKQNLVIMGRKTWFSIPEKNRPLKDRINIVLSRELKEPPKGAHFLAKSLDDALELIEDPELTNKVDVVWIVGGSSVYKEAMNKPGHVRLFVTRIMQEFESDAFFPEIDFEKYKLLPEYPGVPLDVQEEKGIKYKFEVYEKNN
The series can be described thus: DHFR enzyme assay, calf liver homogenate. It is filed as biochemical. The procedure:
as §1

The test system of series [2] is wild type rodent malaria (Plasmodium berghi). As to the kind of experiment: In vitro evaluation against wild type rodent malaria. The following applies: Experiment 5, 48 hrs or 96 hrs after treatment. It counts as cell-based. The procedure: (§2) Briefly, a red blood cell suspension at a malarial (wild type Plasmodium falciparum) infection rate of approximately 1% was added to each well of a 96 well micro titer plate. The test compound was added to the cultures at final concentrations of 2.0, 0.2 or 0.02 μM. and incubated in an environment of 5% CO2, 5% O2 and 90% N2 at 37° C. Every 24 hrs the dish was removed, 100 μl of spent medium removed and 100 μl of fresh, compound containing-medium was added back to each well. This procedure was repeated daily.
(§3) At 48 hrs and again at 96 hrs, blood smears were made from each well and 500 Red Blood Cells (RBCs) were counted and inspected for malarial infection. The percent infection rate was then determined for each experimental condition tested.
The procedure set forth in Example 1 is utilized for testing compounds against wild type rodent malaria (Plasmodium berghi).

Series [3] has as its system yeast transfected but not sensitive to antifolate antimalarials (folate insensitive). As to the kind of experiment: Yeast assay for antifolate activity, folate insensitive yeast. It is filed as cell-based, Saccharomyces cerevisiae. The conditions noted are these: 48 hours of treatment. The procedure:
(§4) We have established a in vitro yeast assay model for determining sensitivity to antifolate anti-malarials.
(§5) Saccharomyces cerevisiae was grown in culture and after 48 hours of treatment as described below the growth of the yeast was determined. Control (i.e., yeast grown with no treatment) is considered to be 100% growth. Drug treatment was then related to the controls as a percent of control growth. S. cerevisiae types tested included wild type yeast, yeast made sensitive to antifolate antimalarials by transfecting yeast with malarial dihydrofolate reductase (folate sensitive or folate sen), yeast transfected but not sensitive to antifolate antimalarials (folate insensitive or folate insen).

Series [4] has as its system multi-drug resistant P. falciparum (MDR). As to the kind of experiment: In vitro RBC culture, multi-drug resistant P. falciparum. It counts as cell-based, Plasmodium falciparum. The procedure: as §2, §3
(§6) Malaria parasite (P. falciparum) was grown in culture as described previously. At 48 hours and 96 hours of treatment, red blood cells were taken from culture and the percent red blood cells infected with the parasite was determined by microscopic examination.

Series [5] deals with yeast transfected with malarial dihydrofolate reductase (folate sensitive). The series can be described thus: Yeast assay for antifolate activity, folate sensitive yeast. The following applies: 48 hours of treatment. It counts as cell-based, Saccharomyces cerevisiae. The procedure:
as §4, §5

In a further series the test system is Plasmodium berghi. The series can be described thus: In vivo evaluation against Plasmodium berghi in Lewis rats, intravenous treatment. Further details: species or system rat. The conditions noted are these: 20 mg/kg I.V., 24 and 48 hrs. The procedure: In vivo testing was performed using juvenile female Lewis rats. Rats were inoculated intraperitoneally with 30,000,000 Plasmodium berghi infected RBCs. Rats were bled daily from the tail vein and, when parasitemia reached 1-3%, therapy was begun.
Blood smears were obtained at 24 and 48 hrs. The percent RBCs infected was then calculated after counting and inspecting 500 RBCs for each rat.

The test system of series [6] is wild type Plasmodium falciparum. The series can be described thus: In vitro red blood cell culture infected with wild type Plasmodium falciparum, percent RBCs infected. It is filed as cell-based. The conditions noted are these: 0.006 μM to 0.4 μM.
Series [7] has as its system mefloquine resistant P. falciparum (Mfl res). The series can be described thus: In vitro RBC culture, mefloquine resistant P. falciparum. It is filed as cell-based, Plasmodium falciparum. The procedure:
as §2, §3
The procedure set forth in Example 1 is utilized for testing the effectiveness of mefloquine and atrazine against mefloquine-resistant P. falciparum.
as §6

The next series deals with malarial DHFR. The series can be described thus: DHFR enzyme assay, cultures of P. falciparum. It counts as biochemical. The procedure: as §1
In series [8] the test system is chloroquine resistant P. falciparum (Clq res). As to the kind of experiment: In vitro RBC culture, chloroquine resistant P. falciparum. It is filed as cell-based, Plasmodium falciparum.

For the compound `CCNc1nc(Cl)nc(NC(C)C)n1` [atrazine, 2-chloro-4-ethylamino-6-isopropylamino-s-triazine], the LD50 in series [1] was roughly 3000 mg/kg. For the same compound, the “percentage of fibroblast cells infected with T. gondii” value in the series with Toxoplasma gondii is recorded as “relatively low percentage of the cells being infected”. The “Parasitemia Day 4” value with P. berghei (ethanol control 24%) came out at 6.0%. The “Parasitemia Day 11” value in the series on P. berghei (ethanol control 42%) was found to be 10.5%. The “inhibition of DHFR” value on rat DHFR, against calf DHFR and with malarial DHFR was “does not inhibit DHFR” each time. Also, the “yeast growth (FIG. 7)” value (in the series with wild type yeast; in series [3]; in [5]) was “Neither chloroquine (Clq) nor atrazine affected growth” throughout. In addition, the “percentage of RBCs infected with P. berghi” value in [2] is listed as “relatively low percentage of the RBCs being infected”. Moreover, the “effectiveness against resistant parasite (FIGS. 8, 9)” value in [4] (multi-drug resistant, 48 and 96 hours) is on record as “effective against several classic forms of resistance”; in series [7] (mefloquine resistant, 48 and 96 hours), “effective against several classic forms of resistance”; in series [8] (chloroquine resistant, 48 and 96 hours), “effective against several classic forms of resistance”. Also, the “Red Blood Cell Infection Rate” value came to 3% in [4] (multidrug-resistant, 96 hrs of treatment, 0.02 μM, control 25); 3% in series [7] (mefloquine-resistant, 96 hrs of treatment, 0.02 μM, control 24); 4% in series [8] (chloroquine-resistant, 96 hrs of treatment, 0.02 μM, control 28). The “in vivo percentage of RBCs infected with P. berghi compared to non-treated controls (FIG. 6)” value in the series on Plasmodium berghi was “disease dramatically reduced”. For the same compound, the “effectiveness compared with chloroquine (FIG. 5)” value in series [6] is “as effective and potent as chloroquine”. In addition, the “percentage of RBCs infected with mefloquine-resistant P. falciparum” value in series [7] (Example 3, 48 hrs or 96 hrs after treatment) is listed as “relatively low percentage of the RBCs being infected”. The “percentage of RBCs infected with chloroquine-resistant P. falciparum” value in series [8] (Example 2, 48 hrs or 96 hrs after treatment) is “relatively low percentage of the RBCs being infected”.
